Drawing on patent publication EP0564356A1, “4-phenylaminomethylimidazole derivatives, process for their preparation, angiotensin II receptor antagonists and their application in therapy” (FOURNIER INDUSTRIE ET SANTE, priority 1992, dated 1993), this text covers IC50 for 56 compounds.

By IC50 is commonly meant the concentration that inhibits the measured activity by half. Low values mean greater potency in that assay, high ones weaker potency in that assay.

The test concerns the target T1, récepteur vasculaire de l'angiotensine II (Oryctolagus cuniculus, UniProt P34976).
T1 construct: réponse contractile induite par l'angiotensine II dans des anneaux isolés d'aorte de lapin; from tissue; host or cells: isolated rabbit aortic rings
T1 sequence (P34976 1-359): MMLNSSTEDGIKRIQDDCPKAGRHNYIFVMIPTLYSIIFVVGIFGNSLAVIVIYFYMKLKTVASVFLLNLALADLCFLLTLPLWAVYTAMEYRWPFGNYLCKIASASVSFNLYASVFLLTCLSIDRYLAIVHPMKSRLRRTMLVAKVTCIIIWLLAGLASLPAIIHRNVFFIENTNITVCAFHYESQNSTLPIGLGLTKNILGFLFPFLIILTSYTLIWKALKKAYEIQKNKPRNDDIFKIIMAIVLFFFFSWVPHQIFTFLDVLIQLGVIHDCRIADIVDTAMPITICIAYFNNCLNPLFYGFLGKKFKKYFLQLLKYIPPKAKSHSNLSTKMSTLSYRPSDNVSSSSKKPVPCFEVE
As to the kind of experiment: Antagonism of the angiotensin II-induced contractile response in isolated rabbit aortic rings. More on the design: species or system lapin. The conditions noted are these: contraction by angiotensine II 3.10⁻⁹ M, test product preincubated 15 minutes, 37°C. The method, then: L'activité des composés selon l'invention comme antagonistes du récepteur vasculaire de l'angiotensine II a été évaluée par leur efficacité à antagoniser la réponse contractile induite par l'angiotensine II dans des anneaux isolés d'aorte de lapin. Les anneaux sont suspendus dans un bain de Krebs-Henseleit maintenu à 37°C et aéré par un mélange O₂/CO₂ (95/5 , v/v) puis étirés à une tension de repos de 2 g. Après une heure de repos, on provoque une contraction par l'angiotensine II (3.10⁻⁹ M) en présence du produit à tester préincubé pendant 15 minutes. La concentration (exprimée en nanomole) de produit à tester produisant une inhibition de 50 % de la réponse contractile (IC₅₀) est calculée à partir de la courbe concentration-réponse . Les résultats obtenus avec un certain nombre de composés selon l'invention sont regroupés dans le tableau VIII.

`CCCCc1ncc(Cn2c(C(=O)O)cc3ccccc32)n1Cc1ccc(C(=O)O)cc1` [compound 33] registered an IC50 of 7.1 nM.

`CCCCc1ncc(CNc2cc([N+](=O)[O-])ccc2C(=O)O)n1Cc1ccc(C(=O)O)cc1` [compound 35] came in with a half-inhibitory concentration (IC50) of 1.2 nM.

`CCCCc1ncc(CNc2ccccc2C(=O)O)n1Cc1ccc(C(=O)NS(=O)(=O)c2ccccc2Cl)cc1` [compound 211] gave a half-maximal inhibitory concentration (IC50) of 0.8 nM.

`CCCCc1ncc(CNc2ccccc2C(=O)O)n1Cc1ccc(C(=O)OCC2CC2)cc1` [compound 178] yielded an IC50 of 67 nM.

In the case of `CCCCc1ncc(CNc2ccccc2C(=O)O)n1Cc1ccc(C(=O)NS(=O)(=O)c2ccccc2C)cc1` [compound 67], half-maximal inhibition (IC50) was put at 1.5 nM.

As to `CCCCc1ncc(CNc2ccccc2C(=O)O)n1Cc1ccc(C(=O)NS(=O)(=O)c2ccccc2N=[N+]=[N-])cc1` [compound 228], the IC50 came out at 2 nM.

Compound `CCCCc1ncc(CNc2ccccc2C(=O)Oc2ccccc2)n1Cc1ccc(C(=O)O)cc1` [compound 157] gave an IC50 of 54 nM.

The compound `CCCCc1nc(I)c(CNc2ccccc2C(=O)O)n1Cc1ccc(C(=O)O)cc1` [compound 44] returned an IC50 of 5.3 nM.

Consider `CCCCc1ncc(CNc2ccccc2C(=O)OCC(=O)N(CCC)CCC)n1Cc1ccc(C(=O)OCC(=O)N(CCC)CCC)cc1` [compound 181], for which the IC50 turned out to be 80 nM.

In turn, `CCCCc1ncc(CNc2ccccc2C(=O)OCC(=O)N(CC)CC)n1Cc1ccc(C(=O)OC)cc1` [compound 76] came in with an IC50 of 90 nM.

`CCCCc1ncc(CNc2ccccc2C(=O)O)n1Cc1ccc(C(=O)NS(=O)(=O)c2cccc(Cl)c2)cc1` [compound 201] yielded an IC50 of 10 nM.

In turn, `CCCc1nc(Cl)c(CNc2ccccc2C(=O)O)n1Cc1ccc(C(=O)O)cc1` [compound 42] had an IC50 of 5.1 nM.

The compound `CCCCc1nc(Cl)c(CNc2ccccc2C(=O)O)n1Cc1ccc(C(=O)O)cc1Cl` [compound 41] gave an IC50 of 5.1 nM.

`CCCCc1ncc(CNc2ccccc2C(=O)O)n1Cc1ccc(C(=O)NS(=O)(=O)c2ccc(Cl)cc2)cc1` [compound 202] came in with an IC50 of 14.7 nM.

Turning to `CCCCc1ncc(CNc2ccccc2C(=O)OCCOC)n1Cc1ccc(C(=O)O)cc1` [compound 158], the IC50 is 75 nM.

In turn, `CCCCc1nc(Cl)c(CNc2cc([N+](=O)[O-])ccc2C(=O)O)n1Cc1ccc(C(=O)O)cc1` [compound 46] displayed a 50% inhibitory concentration (IC50) of 10.5 nM.

`CCCCc1nc(Cl)c(CNc2ccccc2C(=O)O)n1Cc1ccc(C(=O)NS(=O)(=O)c2ccccc2C)cc1` [compound 66] showed an IC50 of 8.8 nM.

Regarding `CCCCc1ncc(CNc2ccccc2C(=O)OCC(=O)N(CC)CC)n1Cc1ccc(C(=O)OCC(=O)N(CC)CC)cc1` [exemple 68, acide 2-[[[2-butyl-1-[(4-((((diéthylamino)carbonyl)méthoxy)carbonyl)phényl)méthyl]-1H-imidazol-5-yl]méthyl]amino]-benzoïque, ((diéthylamino)carbonyl)méthyl ester], the IC50 came to 30 nM.

As for `CCCCc1ncc(CNc2ccccc2C(=O)O)n1Cc1ccc(C(=O)NS(=O)(=O)c2ccc(OC)cc2)cc1` [compound 204], half-maximal inhibition (IC50) required 9.5 nM.

On to `CCCCc1nc(Cl)c(CNc2ccc(Cl)cc2C(=O)O)n1Cc1ccc(C(=O)O)cc1` [compound 49], for which half-maximal inhibition (IC50) required 13.2 nM.

The compound `CCCCc1ncc(CNc2ccccc2C(=O)OCOC(=O)CCC)n1Cc1ccc(C(=O)NS(=O)(=O)c2ccccc2C)cc1` [compound 187] gave a concentration for half-maximal inhibition (IC50) of 7 nM.

`CCCCc1ncc(CNc2ccccc2C(=O)O)n1Cc1ccc(C(=O)OCC)cc1` [compound 174] returned an IC50 of 80 nM.

Regarding `CCCCOC(=O)c1ccccc1NCc1cnc(CCCC)n1Cc1ccc(C(=O)O)cc1` [compound 166], the concentration for half-maximal inhibition (IC50) came out at 15 nM.

For `CCCCc1nc(SC)c(CNc2ccccc2C(=O)O)n1Cc1ccc(C(=O)O)cc1` [compound 198], the IC50 was determined as 4.6 nM.

In the case of `CCCCc1nc(Cl)c(CNc2ccccc2C(=O)O)n1Cc1ccc(-c2nnn[nH]2)cc1` [compound 51], 10.8 nM corresponded to half-maximal inhibition (IC50).

Turning to `CCCCc1nc(C(F)(F)F)c(CNc2ccccc2C(=O)O)n1Cc1ccc(C(=O)O)cc1` [compound 43], the IC50 came to 6.3 nM.

On to `CCCCc1ncc(CNc2ccccc2C(=O)OCCC(C)C)n1Cc1ccc(C(=O)O)cc1` [compound 161], for which 64 nM corresponded to half-maximal inhibition (IC50).

Compound `CCCCc1nc(Cl)c(CNc2ccc(C)cc2C(=O)O)n1Cc1ccc(C(=O)O)cc1` [compound 45] had a concentration for half-maximal inhibition (IC50) of 6.7 nM.

The compound `CCCCc1ncc(CNc2ccccc2C(=O)OCCc2ccccc2)n1Cc1ccc(C(=O)O)cc1` [compound 156] showed an IC50 of 82 nM.

For `CCCCc1nc(Cl)c(CNc2cc(Cl)ccc2C(=O)O)n1Cc1ccc(C(=O)O)cc1` [compound 48], half-maximal inhibition (IC50) required 5.3 nM.

As for `CCCCc1ncc(CNc2ccccc2C(=O)OCC(O)CO)n1Cc1ccc(C(=O)O)cc1` (centres unmarked) [exemple 28, acide 2-[[[2-butyl-1-[(4-carboxyphényl)méthyl]-1H-imidazol-5-yl]méthyl]amino]-benzoïque, 2,3-dihydroxy-propyl ester], the IC50 came out at 80 nM.

Compound `CCCCCC(=O)OCOC(=O)c1ccccc1NCc1cnc(CCCC)n1Cc1ccc(C(=O)O)cc1` [compound 148] gave an IC50 of 12 nM.

`CCCCc1ncc(CNc2ccccc2C(=O)O)n1Cc1ccc(C(=O)O)cc1` [exemple 32, acide 2-[[[2-butyl-1-[(4-carboxyphényl)méthyl]-1H-imidazol-5-yl]méthyl]amino]-benzoïque] came in with an IC50 of 3.6 nM.

`CCCCc1ncc(CNc2ccccc2C(=O)OC(C)OC(=O)C2CCCCC2)n1Cc1ccc(C(=O)O)cc1` (centres unmarked) [compound 145] had an IC50 of 40 nM.

For `CCCCc1nc(Cl)c(CNc2c(Cl)cc(Cl)cc2C(=O)O)n1Cc1ccc(C(=O)O)cc1` [compound 39], the IC50 was 106 nM.

Compound `CCCCc1nc(Cl)c(CNc2ccccc2-c2nnn[nH]2)n1Cc1ccc(C(=O)O)cc1` [compound 52] registered an IC50 of 40.2 nM.

With `CCCCc1ncc(CNc2ccccc2C(=O)O)n1Cc1ccc(C(=O)NS(=O)(=O)c2ccccc2)cc1` [compound 203], the IC50 stood at 4.4 nM.

`CCCCc1ncc(CNc2ccccc2C(=O)OCC(=O)OCC)n1Cc1ccc(C(=O)O)cc1` [compound 141] returned an IC50 of 10 nM.

Take `CCCCc1ncc(CNc2ccccc2C(=O)OCC(C)C)n1Cc1ccc(C(=O)O)cc1` [compound 164]: the half-maximal inhibitory concentration (IC50) came to 40 nM.

For `CCCCCOC(=O)c1ccccc1NCc1cnc(CCCC)n1Cc1ccc(C(=O)O)cc1` [compound 170], the IC50 came to 80 nM.

`CCCCc1ncc(CNc2ccccc2C(=O)O)n1Cc1ccc(C(=O)NS(C)(=O)=O)cc1` [compound 205] gave an IC50 of 5.5 nM.

`CCCCc1ncc(CNc2ccccc2C(N)=O)n1Cc1ccc(C(=O)O)cc1` [compound 209] yielded an IC50 of 70 nM.

Regarding `CCCCc1ncc(CNc2ccccc2C(=O)OCOC(=O)CCC)n1Cc1ccc(C(=O)O)cc1` [compound 149], half-maximal inhibition (IC50) was put at 5 nM.

The compound `CCCc1ncc(CNc2cc([N+](=O)[O-])ccc2C(=O)O)n1Cc1ccc(C(=O)O)cc1` [compound 212] came in with an IC50 of 46 nM.

`CCCCc1ncc(CNc2ccccc2C(=O)OCC(=O)N(CCC)CCC)n1Cc1ccc(C(=O)O)cc1` [compound 134] had an IC50 of 35 nM.

With `CCCCc1ncc(CNc2ccccc2C(=O)OCC(=O)CC)n1Cc1ccc(C(=O)O)cc1` [compound 155], the IC50 came to 8.7 nM.

With `CCCCc1ncc(CNc2ccccc2C(=O)OCC2CC2)n1Cc1ccc(C(=O)O)cc1` [compound 163], the IC50 was 50 nM.

`CCCCc1nc(Cl)c(Cn2c(C(=O)O)cc3ccccc32)n1Cc1ccc(C(=O)O)cc1` [compound 34]: 8.4 nM corresponded to half-maximal inhibition (IC50).

Consider `CCCc1ncc(CNc2ccccc2C(=O)O)n1Cc1ccc(C(=O)O)cc1` [compound 36], for which the IC50 came to 7 nM.

For the compound `CCCCc1ncc(CNc2cc(N=[N+]=[N-])ccc2C(=O)O)n1Cc1ccc(C(=O)O)cc1` [compound 226], the midpoint of inhibition, the IC50, lay at 6 nM.

In the case of `CCCCc1nc(Cl)c(CNc2cc3ccccc3cc2C(=O)O)n1Cc1ccc(C(=O)O)cc1` [compound 47], the IC50 was determined as 71.3 nM.

Consider `CCCCc1nc(Cl)c(CNc2ccccc2C(=O)O)n1Cc1ccc(C(=O)O)cc1` [compound 50], for which the IC50 was 5.7 nM.

`CCCCc1ncc(CNc2ccccc2C(=O)OCC2COC(C)(C)O2)n1Cc1ccc(C(=O)O)cc1` (centres unmarked) [exemple 26, acide 2-[[[2-butyl-1-[(4-carboxyphényl)méthyl]-1H-imidazol-5-yl]méthyl]amino]-benzoïque, 2,2-diméthyl-1,3-dioxolane-4-yl-méthyl ester] yielded an IC50 of 100 nM.

For the compound `CCCCc1nc(Cl)c(CNc2c(C(=O)O)cc(OC)c(OC)c2OC)n1Cc1ccc(C(=O)O)cc1` [compound 40], the IC50 is 57.6 nM.

`CCCCNC(=O)c1ccccc1NCc1cnc(CCCC)n1Cc1ccc(C(=O)O)cc1` [compound 210] displayed a concentration for half-maximal inhibition (IC50) of 84 nM.

`CCCCc1nc(Cl)c(CN(C(C)=O)c2ccccc2C(=O)O)n1Cc1ccc(C(=O)O)cc1` [compound 55] gave an IC50 of 69.1 nM.
